Measured values as given in patent US20240308977A1, “PYRIDAZINE DERIVATIVES AS INHIBITORS OF NLRP3” (Hoffmann-La Roche Inc., priority 2021, published 2024).

Tests used:
Assay type in all cases: cell-based
NLRP3 [1] = molecular target: T1, NLRP3 (Homo sapiens, UniProt Q96P20); test: THP-1 cells pyroptosis assay; design: Seed THP-1 cells (25,000 cells/well) containing 10 μg/ml LPS; host or cells: THP-1 cells; details: LPS primed, nigericin 5 μM, resazurin read-out
Method: Therefore, it is anticipated that inhibitors of NLRP3 will block pyroptosis, as well as the release of pro-inflammatory cytokines (e.g. IL-1B) from the cell.
On the day of the experiment, THP-1 cells were harvested and resuspended into RPMI medium (without FBS). The cells were then counted and viability (>90%) checked by Trypan blue (Sigma #T8154). […] To this diluted cell solution was added LPS (Sigma #L4524) to give a 1 μg/ml Final Assay Concentration (FAC). 40 μl of the final preparation was aliquoted into each well of a 96-well plate. The plate thus prepared was used for compound screening.
The following method step-by-step assay was followed for compound screening. • 1. […] Incubate for 3 hours at 37° C., 5% CO2 • 4. Add 5 μl nigericin (Sigma #N7143) (FAC 5 μM) to all wells • 5. Incubate for 1 hr at 37° C., 5% CO2 • 6. At the end of the incubation period, spin plates at 300 xg for 3 mins and remove supernatant • 7. […] IC50 data is fitted to a non-linear regression equation (log inhibitor vs response-variable slope 4-parameters)

NLRP3 [2] = molecular target: T1, NLRP3; test: Human whole blood IL-1β release assay; design: Human whole blood in Li-heparin tubes was obtained from healthy donors; from tissue; host or cells: human whole blood from healthy donors; details: LPS 1 μg/ml, nigericin 10 μM, IL-1β by AlphaLisa
Method: Human whole blood in Li-heparin tubes was obtained from healthy donors from a volunteer donor panel. • 1. […] Incubate for 3 hours at 37° C., 5% CO2 • 4. Add 10 μl nigericin (Sigma #N7143) (10 μM FAC) to all wells • 5. Incubate for 1 hr at 37° C., 5% CO2 • 6. At the end of the incubation period, spin plates at 300 xg for 5 mins to pellet cells and remove 20 μl of supernatant and add to 96-well v-bottom plates for IL-1β analysis (note: these plates containing the supernatants can be stored at −80° C. to be analysed at a later date) • 7. IL-1β was measured according to the manufacturer protocol (Perkin Elmer-AlphaLisa IL-1 Kit AL220F-5000) • 8. IC50 data is fitted to a non-linear regression equation (log inhibitor vs response-variable slope 4-parameters)

[3] = molecular target: T2, hERG cardiac potassium channel (Homo sapiens, UniProt Q12809); test: hERG screening assay (automated patch clamp, CHO crelox hERG cells); details: whole-cell patch clamp at 35-37° C.
T2 construct: host or cells: CHO crelox hERG cell line (Chinese hamster)
T2 sequence (Q12809 whole entry): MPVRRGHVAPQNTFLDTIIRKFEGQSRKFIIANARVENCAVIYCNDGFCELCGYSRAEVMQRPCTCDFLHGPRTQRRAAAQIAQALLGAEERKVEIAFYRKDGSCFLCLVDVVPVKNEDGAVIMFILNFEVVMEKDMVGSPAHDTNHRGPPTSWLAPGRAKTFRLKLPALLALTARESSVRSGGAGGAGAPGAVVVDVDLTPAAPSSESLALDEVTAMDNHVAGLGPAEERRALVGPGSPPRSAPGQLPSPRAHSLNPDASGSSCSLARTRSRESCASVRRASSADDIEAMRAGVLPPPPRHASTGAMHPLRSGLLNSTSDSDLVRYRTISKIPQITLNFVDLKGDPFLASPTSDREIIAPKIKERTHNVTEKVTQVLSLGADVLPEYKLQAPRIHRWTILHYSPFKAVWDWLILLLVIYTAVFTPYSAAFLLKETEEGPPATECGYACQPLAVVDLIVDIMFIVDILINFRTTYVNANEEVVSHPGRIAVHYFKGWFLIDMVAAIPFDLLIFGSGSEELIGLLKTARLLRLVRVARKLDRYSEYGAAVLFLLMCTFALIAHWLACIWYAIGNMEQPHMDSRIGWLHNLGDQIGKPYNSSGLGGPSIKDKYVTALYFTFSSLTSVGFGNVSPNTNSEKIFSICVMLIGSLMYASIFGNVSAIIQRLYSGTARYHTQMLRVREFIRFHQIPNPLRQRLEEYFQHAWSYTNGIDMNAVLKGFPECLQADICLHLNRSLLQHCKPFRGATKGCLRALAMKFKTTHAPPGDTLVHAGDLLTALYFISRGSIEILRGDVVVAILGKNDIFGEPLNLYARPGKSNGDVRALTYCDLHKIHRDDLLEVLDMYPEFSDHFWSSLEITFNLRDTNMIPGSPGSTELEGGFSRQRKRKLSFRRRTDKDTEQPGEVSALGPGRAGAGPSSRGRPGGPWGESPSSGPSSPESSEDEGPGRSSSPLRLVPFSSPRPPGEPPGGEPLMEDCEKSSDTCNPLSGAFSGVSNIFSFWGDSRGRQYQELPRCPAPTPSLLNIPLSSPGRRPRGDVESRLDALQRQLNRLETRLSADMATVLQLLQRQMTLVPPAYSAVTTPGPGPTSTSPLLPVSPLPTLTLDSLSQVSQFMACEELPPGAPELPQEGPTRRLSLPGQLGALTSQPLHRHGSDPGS
Method: Ready-to-use frozen instant CHO-hERG cells were cryopreserved at Evotec (Germany) and used directly in the experiments.
The internal solution contains (in mM): KCl, 10; KF, 100; NaCl, 10; HEPES, 10; EGTA, 20; pH=7.0-7.4 with KOH, osmolarity 260-300 mOsm.
The effects of a compound on hERG K+-currents parameters will be evaluated at 2 concentrations in at least 4 cells.
K+ currents are measured with the patch-voltage-clamp technique in the whole-cell configuration at 35-37° C.
The amplitudes of IKhERG were recorded in each concentration of drug and they were compared to the vehicle control values (taken as 100%) to define fractional blocks. The concentration-response data were fitted with the following relationship:
Concentration-response curves were fitted by non-linear regression analysis using EworkBook suite (ID Business Solutions Ltd, UK). Data fit was done with the 4 Parameter Logistic Model (fit=(A+(B/(1+((x/C)^D)))), where A=0 and B=100).
In the drug development process of small molecules, one of the most frequent adverse side effects, leading to the failure of drugs, is the cardiac arrhythmias. Such failure is often related to the capacity of the drug to inhibit the human ether-à-go-go-related gene (hERG) cardiac potassium channel. Having no or low inhibition of the hERG cardiac potassium channel is therefore considered as beneficial.

T1 sequence (Q96P20 whole entry): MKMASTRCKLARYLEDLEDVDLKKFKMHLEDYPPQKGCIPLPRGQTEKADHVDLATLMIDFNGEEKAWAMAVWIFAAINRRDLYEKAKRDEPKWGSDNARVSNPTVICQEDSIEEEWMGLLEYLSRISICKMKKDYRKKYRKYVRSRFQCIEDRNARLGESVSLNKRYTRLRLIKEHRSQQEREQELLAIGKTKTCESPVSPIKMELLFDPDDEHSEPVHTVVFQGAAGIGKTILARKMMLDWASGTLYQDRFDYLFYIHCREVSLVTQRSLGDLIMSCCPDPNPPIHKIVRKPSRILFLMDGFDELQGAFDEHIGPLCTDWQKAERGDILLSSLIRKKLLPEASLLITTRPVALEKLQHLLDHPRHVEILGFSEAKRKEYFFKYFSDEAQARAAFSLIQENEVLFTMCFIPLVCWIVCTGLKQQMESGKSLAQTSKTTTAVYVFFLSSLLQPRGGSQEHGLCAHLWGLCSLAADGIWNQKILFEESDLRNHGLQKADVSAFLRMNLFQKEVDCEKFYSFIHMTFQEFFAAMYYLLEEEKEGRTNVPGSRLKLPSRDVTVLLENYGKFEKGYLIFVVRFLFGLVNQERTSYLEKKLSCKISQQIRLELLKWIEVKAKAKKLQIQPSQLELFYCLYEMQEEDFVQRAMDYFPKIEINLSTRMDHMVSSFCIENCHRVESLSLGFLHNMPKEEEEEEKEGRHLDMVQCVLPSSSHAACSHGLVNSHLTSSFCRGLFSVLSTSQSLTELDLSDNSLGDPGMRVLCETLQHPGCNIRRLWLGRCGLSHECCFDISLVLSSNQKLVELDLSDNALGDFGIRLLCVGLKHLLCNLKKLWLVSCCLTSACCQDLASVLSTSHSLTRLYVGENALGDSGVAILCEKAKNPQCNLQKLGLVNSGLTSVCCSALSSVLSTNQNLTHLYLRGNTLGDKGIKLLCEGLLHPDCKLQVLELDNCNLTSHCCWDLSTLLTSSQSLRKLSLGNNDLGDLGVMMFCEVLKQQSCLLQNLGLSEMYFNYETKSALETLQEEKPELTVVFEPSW

| SMILES | IC50 (NLRP3 [1]) | IC50 (NLRP3 [2]) | IC50 [3] |
| --- | --- | --- | --- |
| Cc1cc(N[C@H]2C[C@@](C)(O)C2)nnc1-c1ccc(C#N)cc1O [Example 4, 3-Hydroxy-4-[6-[(3-hydroxy-3-methyl-cyclobutyl)amino]-4-methyl-pyridazin-3-yl]benzonitrile] | 823 nM | – | – |
| CCN1CCC[C@@H](Nc2cc(C(F)(F)F)c(-c3ccc(C#N)cc3O)nn2)C1 [Example 3, 4-[6-[[(3R)-1-Ethyl-3-piperidyl]amino]-4-(trifluoromethyl)pyridazin-3-yl]-3-hydroxy-benzonitrile] | 73.1 nM | 51.8 nM | – |
| CCN1CCC[C@@H](Nc2cc(C)c(-c3ccc(C#N)cc3O)nn2)C1 [Example 1, 4-[6-[[(3R)-1-Ethyl-3-piperidyl]amino]-4-methyl-pyridazin-3-yl]-3-hydroxy-benzonitrile; formic acid] | 3.1 nM | 3.2 nM | > 20000 nM |
| CCN1CCC2CCN(c3ccc(-c4c(C)cc(C#N)cc4O)nn3)C2C1 (single isomer, unassigned) [Example 6A, 4-[6-[(3aS,7aR)-6-Ethyl-3,3a,4,5,7,7a-hexahydro-2H-pyrrolo[2,3-c]pyridin-1-yl]pyridazin-3-yl]-3-hydroxy-5-methyl-benzonitrile or 4-[6-[(3aR,7aS)-6-ethyl-3,3a,4,5,7,7a-hexahydro-2H-pyrrolo[2,3-c]pyridin-1-yl]pyridazin-3-yl]-3-hydroxy-5-methyl-benzonitrile] | 3.9 nM | 14.9 nM | – |
| CCN1CCC2CCN(c3ccc(-c4c(C)cc(C#N)cc4O)nn3)C2C1 (single isomer, unassigned) [Example 6B, 4-[6-[(3aR,7aS)-6-Ethyl-3,3a,4,5,7,7a-hexahydro-2H-pyrrolo[2,3-c]pyridin-1-yl]pyridazin-3-yl]-3-hydroxy-5-methyl-benzonitrile or 4-[6-[(3aS,7aR)-6-ethyl-3,3a,4,5,7,7a-hexahydro-2H-pyrrolo[2,3-c]pyridin-1-yl]pyridazin-3-yl]-3-hydroxy-5-methyl-benzonitrile] | 763 nM | – | – |
